Values joined by “and” are separate entries in the source; they are usually repeats but may differ in a detail not shown here. Equal entries are not always repeated. Where two headings read alike, the source gives them in different places.
Experiments:
[1] = cited from earlier work
[2] = cited from earlier work; remark: listed apart in the source
[3] = Population pharmacokinetic; assay type: in vivo, human
[4] = assay type: in vivo, human
[5] = cited from earlier work; remark: listed apart in the source
[6] = cited from earlier work; remark: listed apart in the source
[7] = cited from earlier work; remark: listed apart in the source
[8] = olaparib tablets 200 mg, noncompartmental; cited from earlier work
blood/PMBCs = conditions: in vitro; cited from earlier work
[9] = cited from earlier work; remark: listed apart in the source
[10] = n = 4, ref unpublished findings from the drug sponsor (NCT00516724)
[11] = ref unpublished findings from the drug sponsor
[12] = 400 mg capsule dose, estimated range
[13] = 400 mg capsule dose, typical averages
[14] = patients with CLcr = 50–80 mL/min, prescribing information
[15] = prescribing information, 400 mg BID capsules
[16] = final population PK model, inter-individual variability
[17] = this study, carboplatin pre-treatment
[18] = olaparib monotherapy, clinical trials

## O=C(c1cc(Cc2n[nH]c(=O)c3ccccc23)ccc1F)N1CCN(C(=O)C2CC2)CC1 [olaparib]
[1]; [10]
  lower olaparib CMAX with carboplatin pre-exposure: 14.8%
  lower steady state olaparib AUC with carboplatin pre-exposure: 11.0%
[1]; [11]
  lower olaparib AUC with carboplatin pre-exposure: 14%
  lower olaparib CMAX with carboplatin pre-exposure: 17%
[2]; [12]
  clearance: 7.0 to 10.8 L/h
  volume of distribution: 107 to 210 L
[2]; [13]
  AUC: 10000 to 70000 ng·h/mL
  CMax: 1 to 6.4 µg/mL
[2]
  CL/F, other literature value: 4.6 L/h
  V/F, other literature value: 40.3 L
[2]; elimination rate calculated over a 72-h period
  half-life: 12 h
[2]; [14]
  increase in olaparib AUC in mild renal impairment: 1.2 fold
  increase in olaparib CMAX in mild renal impairment: 1.5 fold
[2]; [15]
  apparent plasma CL/F: 8.6 (±7.1) L/h
  apparent volume of distribution at steady-state (Vss/F): 167 (±196) L
[2]; tablet dose of 200 mg
  AUC mean: 43000 ng·h/mL
  CL/F mean: 7.95 L/h
  CMAX mean: 7 µg/mL
  V/F mean: 146 L
[3]; bootstrap, 1000 replicates
  IIV CL/F bootstrap estimate (%RSE): 57.0% (7.06%) %CV
  IIV Tlag bootstrap estimate (%RSE): 70.7% (19.6%) %CV
  IIV V/F bootstrap estimate (%RSE): 38.4% (9.78%) %CV
[3]; final covariate model
  BSV on the CL/F parameter explained by carboplatin covariate: ~2%
[3]; final population PK model, inter-individual (between-subject) variability
  IIV CL/F point estimate (%RSE): 55.0% (7.98%) %CV
[3]; [16]
  IIV Tlag point estimate (%RSE): 87.1% (13.5%) %CV
  IIV V/F point estimate (%RSE): 37.3% (9.23%) %CV
[3]; in vivo
  change in volume of distribution relative to carboplatin pretreatment: No change in volume of distribution
[3]; population model
  correlation (r) of creatinine clearance with olaparib clearance: < 0.005
[4]; human, plasma, oral, 200 mg
  half-life: ~3 h
[4]; this study, Group A C1D1, before carboplatin
  V/F, first 200 mg dose of olaparib alone: 31.1 L
[4]; [17]
  decrease in olaparib AUCLAST in presence of carboplatin: 1.3 fold
  decrease in olaparib CMAX in presence of carboplatin: 1.2 fold
[5]; olaparib capsules combined with carboplatin, likely due to carboplatin
  patients having hematologic toxicity: 82%
[5]; [18]
  grade 1–2 fatigue: ~30%
  grade 1–2 nausea: ~32%
  grade 1–2 vomiting: ~20%
[6]; 100 mg olaparib tablets BID with cisplatin and gemcitabine, 23 advanced cancer patients
  CL/F point estimate, previous population PK model: 6.48 L/h and 6.5 L/h
[6]; 100 mg olaparib tablets BID with cisplatin and gemcitabine, 23 patients
  V/F point estimate, previous population PK model: 38.7 L
[6]; 100 mg olaparib tablets BID with cisplatin and gemcitabine
  half-life of first dose olaparib, previous population PK model: 4 h
[6]; single compartment absorption model
  absorption rate (Ka), previous population PK model: 2 h⁻¹
[7]
  change in olaparib plasma protein binding by carboplatin: no change in olaparib plasma protein binding
[8]
  CL/F NCA estimate: 6.08 L/h
blood/PMBCs
  intracellular olaparib when blood/PMBCs were pretreated with carboplatin: greater intracellular olaparib

## N.N.O=C([O-])C1(C(=O)[O-])CCC1.[Pt+2] [carboplatin]
[9]
  terminal plasma half-life: 2 to 3 h
[9]; human, in vivo
  plasma protein binding: not plasma protein bound
[9]; patients with normal renal function (CLcr > 60 mL/min)
  dose excreted within 12 h: 65%
